Experimental data: paper PMC8217813, “Bridging Computational Vaccinology and Vaccine Development Through Systematic Identification, Characterization, and Downselection of Conserved and Variable Circumsporozoite Protein CD4 T Cell Epitopes From Diverse Plasmodium falciparum Strains” (Frontiers in Immunology, 2021)

System: CD4 T cells co-cultured with autologous DCs from PBMCs
Assay type: cell-based, human
Settings: positive = Stimulation Index ≥1.5-fold above baseline, 5 µg/mL peptide; for Percentage of donors demonstrating IFN-γ responses, DR1 / Percentage of donors demonstrating IL-2 responses, DR1 / Percentage of donors demonstrating IL-4 responses, DR1 / Percentage of donors demonstrating IL-10 responses, DR1 / Percentage of donors demonstrating TNF-α responses, DR1: DR1 donors N=5; for Percentage of donors demonstrating IFN-γ responses, DR1 / Percentage of donors demonstrating IFN-γ responses, DR3 / Percentage of donors demonstrating IFN-γ responses, DR4 / Percentage of donors demonstrating IFN-γ responses, DR7 / Percentage of donors demonstrating IFN-γ responses, DR8 / Percentage of donors demonstrating IFN-γ responses, DR9 / Percentage of donors demonstrating IFN-γ responses, DR11 / Percentage of donors demonstrating IFN-γ responses, DR13 / Percentage of donors demonstrating IFN-γ responses, DR15: ICCS after 14-day co-culture; for Percentage of donors demonstrating IL-2 responses, DR1 / Percentage of donors demonstrating IL-4 responses, DR1 / Percentage of donors demonstrating IL-10 responses, DR1 / Percentage of donors demonstrating TNF-α responses, DR1 / Percentage of donors demonstrating IL-2 responses, DR3 / Percentage of donors demonstrating IL-4 responses, DR3 / Percentage of donors demonstrating IL-10 responses, DR3 / Percentage of donors demonstrating TNF-α responses, DR3 / Percentage of donors demonstrating IL-2 responses, DR4 / Percentage of donors demonstrating IL-4 responses, DR4 / Percentage of donors demonstrating IL-10 responses, DR4 / Percentage of donors demonstrating TNF-α responses, DR4 / Percentage of donors demonstrating IL-2 responses, DR7 / Percentage of donors demonstrating IL-4 responses, DR7 / Percentage of donors demonstrating IL-10 responses, DR7 / Percentage of donors demonstrating TNF-α responses, DR7 / Percentage of donors demonstrating IL-2 responses, DR8 / Percentage of donors demonstrating IL-4 responses, DR8 / Percentage of donors demonstrating IL-10 responses, DR8 / Percentage of donors demonstrating TNF-α responses, DR8 / Percentage of donors demonstrating IL-2 responses, DR9 / Percentage of donors demonstrating IL-4 responses, DR9 / Percentage of donors demonstrating IL-10 responses, DR9 / Percentage of donors demonstrating TNF-α responses, DR9 / Percentage of donors demonstrating IL-2 responses, DR11 / Percentage of donors demonstrating IL-4 responses, DR11 / Percentage of donors demonstrating IL-10 responses, DR11 / Percentage of donors demonstrating TNF-α responses, DR11 / Percentage of donors demonstrating IL-2 responses, DR13 / Percentage of donors demonstrating IL-4 responses, DR13 / Percentage of donors demonstrating IL-10 responses, DR13 / Percentage of donors demonstrating TNF-α responses, DR13 / Percentage of donors demonstrating IL-2 responses, DR15 / Percentage of donors demonstrating IL-4 responses, DR15 / Percentage of donors demonstrating IL-10 responses, DR15 / Percentage of donors demonstrating TNF-α responses, DR15: ICCS; for Percentage of donors demonstrating IFN-γ responses, DR3 / Percentage of donors demonstrating IL-2 responses, DR3 / Percentage of donors demonstrating IL-4 responses, DR3 / Percentage of donors demonstrating IL-10 responses, DR3 / Percentage of donors demonstrating TNF-α responses, DR3: DR3 donors N=6; for Percentage of donors demonstrating IFN-γ responses, DR4 / Percentage of donors demonstrating IL-2 responses, DR4 / Percentage of donors demonstrating IL-4 responses, DR4 / Percentage of donors demonstrating IL-10 responses, DR4 / Percentage of donors demonstrating TNF-α responses, DR4: DR4 donors N=10; for Percentage of donors demonstrating IFN-γ responses, DR7 / Percentage of donors demonstrating IL-2 responses, DR7 / Percentage of donors demonstrating IL-4 responses, DR7 / Percentage of donors demonstrating IL-10 responses, DR7 / Percentage of donors demonstrating TNF-α responses, DR7: DR7 donors N=4; for Percentage of donors demonstrating IFN-γ responses, DR8 / Percentage of donors demonstrating IL-2 responses, DR8 / Percentage of donors demonstrating IL-4 responses, DR8 / Percentage of donors demonstrating IL-10 responses, DR8 / Percentage of donors demonstrating TNF-α responses, DR8: DR8 donors N=4; for Percentage of donors demonstrating IFN-γ responses, DR9 / Percentage of donors demonstrating IL-2 responses, DR9 / Percentage of donors demonstrating IL-4 responses, DR9 / Percentage of donors demonstrating IL-10 responses, DR9 / Percentage of donors demonstrating TNF-α responses, DR9: DR9 donors N=4; for Percentage of donors demonstrating IFN-γ responses, DR11 / Percentage of donors demonstrating IL-2 responses, DR11 / Percentage of donors demonstrating IL-4 responses, DR11 / Percentage of donors demonstrating IL-10 responses, DR11 / Percentage of donors demonstrating TNF-α responses, DR11: DR11 donors N=4; for Percentage of donors demonstrating IFN-γ responses, DR13 / Percentage of donors demonstrating IL-2 responses, DR13 / Percentage of donors demonstrating IL-4 responses, DR13 / Percentage of donors demonstrating IL-10 responses, DR13 / Percentage of donors demonstrating TNF-α responses, DR13: DR13 donors N=7; for Percentage of donors demonstrating IFN-γ responses, DR15 / Percentage of donors demonstrating IL-2 responses, DR15 / Percentage of donors demonstrating IL-4 responses, DR15 / Percentage of donors demonstrating IL-10 responses, DR15 / Percentage of donors demonstrating TNF-α responses, DR15: DR15 donors N=7

In the case of IKKYLKKIKNSISTEWSPCS [ICS6], the “Percentage of donors demonstrating IFN-γ responses, DR1” value is reported as 20%, the “Percentage of donors demonstrating IL-2 responses, DR1” value is reported as 20% and the “Percentage of donors demonstrating IL-4 responses, DR1” value is reported as 0%. For the same sequence, the “Percentage of donors demonstrating IL-10 responses, DR1” value was 20%, the “Percentage of donors demonstrating TNF-α responses, DR1” value was 20% and the “Percentage of donors demonstrating IFN-γ responses, DR3” value was 50%. For the same sequence, the “Percentage of donors demonstrating IL-2 responses, DR3” value was 33%, the “Percentage of donors demonstrating IL-4 responses, DR3” value was 0% and the “Percentage of donors demonstrating IL-10 responses, DR3” value was 17%. For the same sequence, the “Percentage of donors demonstrating TNF-α responses, DR3” value was 33%, the “Percentage of donors demonstrating IFN-γ responses, DR4” value was 40% and the “Percentage of donors demonstrating IL-2 responses, DR4” value was 30%. For the same sequence, the “Percentage of donors demonstrating IL-4 responses, DR4” value was 0%, the “Percentage of donors demonstrating IL-10 responses, DR4” value was 30% and the “Percentage of donors demonstrating TNF-α responses, DR4” value was 30%. The “Percentage of donors demonstrating IFN-γ responses, DR7” value was 50%, the “Percentage of donors demonstrating IL-2 responses, DR7” value was 50% and the “Percentage of donors demonstrating IL-4 responses, DR7” value was 0%. The “Percentage of donors demonstrating IL-10 responses, DR7” value was 50%, the “Percentage of donors demonstrating TNF-α responses, DR7” value was 25% and the “Percentage of donors demonstrating IFN-γ responses, DR8” value was 25%. For the same sequence, the “Percentage of donors demonstrating IL-2 responses, DR8” value was 0%, the “Percentage of donors demonstrating IL-4 responses, DR8” value was 0% and the “Percentage of donors demonstrating IL-10 responses, DR8” value was 0%. For the same sequence, the “Percentage of donors demonstrating TNF-α responses, DR8” value was 0%, the “Percentage of donors demonstrating IFN-γ responses, DR9” value was 50% and the “Percentage of donors demonstrating IL-2 responses, DR9” value was 50%. The “Percentage of donors demonstrating IL-4 responses, DR9” value was 25%, the “Percentage of donors demonstrating IL-10 responses, DR9” value was 25% and the “Percentage of donors demonstrating TNF-α responses, DR9” value was 50%. For the same sequence, the “Percentage of donors demonstrating IFN-γ responses, DR11” value was 50%, the “Percentage of donors demonstrating IL-2 responses, DR11” value was 25% and the “Percentage of donors demonstrating IL-4 responses, DR11” value was 0%. For the same sequence, the “Percentage of donors demonstrating IL-10 responses, DR11” value was 25%, the “Percentage of donors demonstrating TNF-α responses, DR11” value was 50% and the “Percentage of donors demonstrating IFN-γ responses, DR13” value was 43%. The “Percentage of donors demonstrating IL-2 responses, DR13” value was 29%, the “Percentage of donors demonstrating IL-4 responses, DR13” value was 0% and the “Percentage of donors demonstrating IL-10 responses, DR13” value was 0%. For the same sequence, the “Percentage of donors demonstrating TNF-α responses, DR13” value was 43%, the “Percentage of donors demonstrating IFN-γ responses, DR15” value was 43% and the “Percentage of donors demonstrating IL-2 responses, DR15” value was 29%. The “Percentage of donors demonstrating IL-4 responses, DR15” value was 14%, the “Percentage of donors demonstrating IL-10 responses, DR15” value was 43% and the “Percentage of donors demonstrating TNF-α responses, DR15” value was 43%.
With DKHIEKYLKRIQNSLSTEWS [ICS9] the “Percentage of donors demonstrating IFN-γ responses, DR1” value was 40%, the “Percentage of donors demonstrating IL-2 responses, DR1” value was 20% and the “Percentage of donors demonstrating IL-4 responses, DR1” value was 0%. For the same sequence, the “Percentage of donors demonstrating IL-10 responses, DR1” value was 0%, the “Percentage of donors demonstrating TNF-α responses, DR1” value was 40% and the “Percentage of donors demonstrating IFN-γ responses, DR3” value was 50%. The “Percentage of donors demonstrating IL-2 responses, DR3” value was 33%, the “Percentage of donors demonstrating IL-4 responses, DR3” value was 33% and the “Percentage of donors demonstrating IL-10 responses, DR3” value was 17%. For the same sequence, the “Percentage of donors demonstrating TNF-α responses, DR3” value was 50%, the “Percentage of donors demonstrating IFN-γ responses, DR4” value was 70% and the “Percentage of donors demonstrating IL-2 responses, DR4” value was 50%. The “Percentage of donors demonstrating IL-4 responses, DR4” value was 0%, the “Percentage of donors demonstrating IL-10 responses, DR4” value was 10% and the “Percentage of donors demonstrating TNF-α responses, DR4” value was 70%. For the same sequence, the “Percentage of donors demonstrating IFN-γ responses, DR7” value was 75%, the “Percentage of donors demonstrating IL-2 responses, DR7” value was 50% and the “Percentage of donors demonstrating IL-4 responses, DR7” value was 25%. For the same sequence, the “Percentage of donors demonstrating IL-10 responses, DR7” value was 0%, the “Percentage of donors demonstrating TNF-α responses, DR7” value was 50% and the “Percentage of donors demonstrating IFN-γ responses, DR8” value was 50%. The “Percentage of donors demonstrating IL-2 responses, DR8” value was 75%, the “Percentage of donors demonstrating IL-4 responses, DR8” value was 0% and the “Percentage of donors demonstrating IL-10 responses, DR8” value was 0%. The “Percentage of donors demonstrating TNF-α responses, DR8” value was 100%, the “Percentage of donors demonstrating IFN-γ responses, DR9” value was 50% and the “Percentage of donors demonstrating IL-2 responses, DR9” value was 50%. For the same sequence, the “Percentage of donors demonstrating IL-4 responses, DR9” value was 0%, the “Percentage of donors demonstrating IL-10 responses, DR9” value was 0% and the “Percentage of donors demonstrating TNF-α responses, DR9” value was 50%. The “Percentage of donors demonstrating IFN-γ responses, DR11” value was 75%, the “Percentage of donors demonstrating IL-2 responses, DR11” value was 50% and the “Percentage of donors demonstrating IL-4 responses, DR11” value was 0%. For the same sequence, the “Percentage of donors demonstrating IL-10 responses, DR11” value was 0%, the “Percentage of donors demonstrating TNF-α responses, DR11” value was 75% and the “Percentage of donors demonstrating IFN-γ responses, DR13” value was 43%. For the same sequence, the “Percentage of donors demonstrating IL-2 responses, DR13” value was 43%, the “Percentage of donors demonstrating IL-4 responses, DR13” value was 0% and the “Percentage of donors demonstrating IL-10 responses, DR13” value was 14%. The “Percentage of donors demonstrating TNF-α responses, DR13” value was 57%, the “Percentage of donors demonstrating IFN-γ responses, DR15” value was 57% and the “Percentage of donors demonstrating IL-2 responses, DR15” value was 43%. For the same sequence, the “Percentage of donors demonstrating IL-4 responses, DR15” value was 14%, the “Percentage of donors demonstrating IL-10 responses, DR15” value was 43% and the “Percentage of donors demonstrating TNF-α responses, DR15” value was 43%.
